Data published in US20040006236A1, “Diaminopropionic acid derivatives” (priority 1999, published 2004).

How the values were obtained:
[1] = tested on: cell-surface Mac-1 adhesion to immobilized fibrinogen (HL-60 cells); assay: Mac-1/Fibrinogen cell-based screening assay; parameters: species or system human; settings: Homo sapiens, HL-60, HL-60 cells; read-out: Mac-1/Fgn Cell based Assay IC50
Procedure, shortened: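 Wells coated with fibrinogen and blocked with PVP. Labeled HL-60 cells (2×10^6 cells/mL in RPMI/0.05% BSA/0.2 mM MnCl2) preincubated with DMSO-diluted compounds for 10 min at 37° C, then left to adhere 30 min at 37° C/5% CO2. Unbound cells washed off with TBS.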

[2] = target: T1, ICAM-1 binding to immobilized Mac-1 (Homo sapiens, UniProt P05107+P11215); assay: Mac-1/ICAM-1 screening assay (solid-phase ELISA); settings: read-out: Mac-1/ICAM-1 Protein-Protein Assay IC50
T1 construct: made in house; host or cells: transfected 293 cells (Mac-1)
T1 sequence (P05107 23-769, other chains not shown): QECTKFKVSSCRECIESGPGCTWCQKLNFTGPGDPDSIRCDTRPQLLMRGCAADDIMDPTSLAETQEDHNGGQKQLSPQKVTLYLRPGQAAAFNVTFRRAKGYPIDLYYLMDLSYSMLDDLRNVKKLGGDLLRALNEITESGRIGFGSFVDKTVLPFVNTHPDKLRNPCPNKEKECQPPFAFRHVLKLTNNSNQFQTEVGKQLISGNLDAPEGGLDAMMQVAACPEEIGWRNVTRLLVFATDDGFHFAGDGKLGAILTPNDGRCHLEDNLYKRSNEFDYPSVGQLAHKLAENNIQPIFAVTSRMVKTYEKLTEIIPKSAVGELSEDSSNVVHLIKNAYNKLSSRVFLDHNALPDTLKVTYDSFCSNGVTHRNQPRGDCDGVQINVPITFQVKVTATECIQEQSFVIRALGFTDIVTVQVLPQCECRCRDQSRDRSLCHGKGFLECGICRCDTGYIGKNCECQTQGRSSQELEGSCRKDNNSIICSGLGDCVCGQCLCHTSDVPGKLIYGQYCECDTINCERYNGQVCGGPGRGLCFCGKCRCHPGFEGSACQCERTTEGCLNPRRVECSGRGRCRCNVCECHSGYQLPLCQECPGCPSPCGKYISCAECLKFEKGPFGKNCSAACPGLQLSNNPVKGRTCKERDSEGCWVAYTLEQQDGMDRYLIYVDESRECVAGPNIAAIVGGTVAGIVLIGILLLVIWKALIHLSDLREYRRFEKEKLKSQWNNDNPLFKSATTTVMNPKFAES
Procedure, shortened: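 Competitive solid-phase ELISA: membrane Mac-1 from transfected 293 cells coated at 3 μg/mL in 20 mM Hepes pH 7.2/0.14 M NaCl/1 mM MnCl2; compounds (0.12 nM-20 μM, 1:4 series) plus 5dICAM-Ig (40 μg/mL, added) 2 h at 37° C. Bound ICAM-Ig detected with HRP anti-human IgG Fc, TMB, A450; IC50 reported.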

IC50 [1]: 312 nM
IC50 [2]: 25 nM
Structure (SMILES): O=C(CC1CCCC1)NC[C@H](NC(=O)c1ccc(C(=O)NCc2cccc(O)c2)cc1Cl)C(=O)O [Example 77]
